Laboratory results: patent US6872738B1, “Product comprising at least a no synthase inhibiting substance associated with at least a phospholipase a2 inhibiting substance” (Societe de Conseils de Recherches et D'Applications …, priority 1999, dated 2005)
Values joined by “and” are separate entries in the source; they are usually repeats but may differ in a detail not shown here. Equal entries are not always repeated.

How the values were obtained:
Experiment in all cases: carrageenan-induced rat's paw edema
Format in all cases: in vivo, Male Sprague Dawley rats
[1] = test system: carrageenan-induced rat's paw edema; settings: for % inflammation: 30 minutes before 1% carrageenan, paw volume 3 hours after injection, 8 rats; for protection of the animal from the edema caused by carrageenan (in words): ip, doses of the groups of the respective example
Experimental: (§1) The activity of the compounds of the invention was evaluated in vivo on a model of carrageenan-induced rat's paw edema.
(§2) Male Sprague Dawley rats (Charles River) weighing 170 to 180 g on the day of the experiment are kept indoors for 5 to 8 days under animal husbandry conditions and are starved for 18 hours on a mesh floor before and during the experiment. The groups are constituted by 8 animals. The products are administered by intraperitoneal route (ip, 2 ml/kg), 30 minutes before the 1% Carrageenan is injected into the sole of the rats' rear right paw. The volume of the paw corresponding to the edema is measured using a water plethysmometer (Ugo Basile, APELEX) before the injection of carrageenan (t0) and 3 hours after the injection. The volume of the paw allows determination of the % of inflammation ((volume of the paw at time t after carrageenan−volume of the same paw at time to before injection of the products/volume of the paw at time t0)×100). […] This effectiveness is determined statistically by a Student test.

[2] = test system: carrageenan-induced rat's paw edema; parameters: key: IS: insignificant result; ***: highly significant result
Experimental: as §1, §2

[3] = test system: carrageenan-induced rat's paw edema; parameters: key: IS: Insignificant result; *: significant result; settings: Example 4; 30 mg/kg ip
Experimental: as §1, §2

SMILES | % inflammation ([1]; 30 mg/kg ip) | protection of the animal from the edema caused by carrageenan (in words) [1] | significance of % inflammation (Student test) [3] | other results
COc1cccc2c1cc([N+](=O)[O-])c1c(C(=O)O)cc3c(c12)OCO3 [aristolochic acid] | 68 ± 5.1% | inactive |  | significance of % inflammation (Student test) ([2]; Example 3, 30 mg/kg ip): IS
N=C(N)NN [aminoguanidine] |  | inactive |  | % inflammation ([1]; 400 mg/kg ip): 53.1 ± 3.4% and 60.7 ± 7.5%; significance of % inflammation (Student test) ([2]; Example 2, 400 mg/kg ip): IS; significance of % inflammation (Student test) ([2]; Example 3, 400 mg/kg ip): IS
CN(Cc1nc(-c2cc(C(C)(C)C)c(O)c(C(C)(C)C)c2)cs1)c1ccc(NC(=N)c2cccs2)cc1.Cl [4-[3,5-bis(1,1-dimethylethyl)-4-hydroxyphenyl]-N-{4-[(imino(2-thienyl)methyl)amino]phenyl}-N-methyl-2-thiazolemethanamine hydrochloride] | 52.8 ± 4.0% | inactive | IS | 
O=[N+]([O-])c1cccc2cn[nH]c12 [7-nitroindazole] |  | inactive |  | % inflammation ([1]; 25 mg/kg ip): 72.5 ± 16.1%; significance of % inflammation (Student test) ([2]; Example 1, 25 mg/kg ip): IS
CCN(CC)CCCC(C)Nc1c2ccc(Cl)cc2nc2ccc(OC)cc12 (stereo not drawn) [mepacrine] | 64.5 ± 3.7% and 53.9 ± 3.2% and 51.9 ± 2.7% | inactive | IS | significance of % inflammation (Student test) ([2]; Example 1, 30 mg/kg ip): IS; significance of % inflammation (Student test) ([2]; Example 2, 30 mg/kg ip): IS
